From the supplement of paper PMC10307832

How the values were obtained:
Test in all cases: relative viability (nuclei count vs DMSO), 5 days (fraction); higher = more cells survive
Kobe2602 + Lapatinib = compound: C1=CC(=CC=C1NC(=S)NNC2=C(C=C(C=C2[N+](=O)[O-])C(F)(F)F)[N+](=O)[O-])F [Kobe2602] + CS(=O)(=O)CCNCc1ccc(-c2ccc3ncnc(Nc4ccc(OCc5cccc(F)c5)c(Cl)c4)c3c2)o1 [Lapatinib] (partner 2 µM)
How it was run: (§1)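 Relative viability divides the nuclei count in treated wells by that in vehicle wells. Lung cancer cell lines were seeded in 1536-well plates, dosed by pin tool the next day, and fixed and stained after 5 days in one step with final 0.05% Triton X-100, 1% formaldehyde and 1 ug/ml Hoechst. Dosing was a single drug or a fixed anchor-drug dose plus five library-drug doses (not always all listed) in √10 steps, and values are medians of duplicate plates imaged at 4×.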

[1] = compound: COc1cc2nccc(Oc3ccc(NC(=O)C4(C(=O)Nc5ccc(F)cc5)CC4)cc3)c2cc1OC [Cabozantinib] + C[C@]1(O)C[C@@H](c2nc(-c3ccc4ccc(-c5ccccc5)nc4c3)c3c(N)nccn32)C1 [Linsitinib] (partner 1 µM)
How it was run: as §1

Kobe2602 + Navitoclax = compound: C1=CC(=CC=C1NC(=S)NNC2=C(C=C(C=C2[N+](=O)[O-])C(F)(F)F)[N+](=O)[O-])F [Kobe2602] + CC1(C)CCC(c2ccc(Cl)cc2)=C(CN2CCN(c3ccc(C(=O)NS(=O)(=O)c4ccc(N[C@H](CCN5CCOCC5)CSc5ccccc5)c(S(=O)(=O)C(F)(F)F)c4)cc3)CC2)C1 [Navitoclax] (partner 0.5 µM)
How it was run: as §1

[2] = compound: COc1cc2nccc(Oc3ccc(NC(=O)C4(C(=O)Nc5ccc(F)cc5)CC4)cc3)c2cc1OC [Cabozantinib] + CC(C)C[C@H](NC(=O)[C@H](Cc1ccccc1)NC(=O)c1cnccn1)B(O)O [Bortezomib] (partner 0.002 µM)
How it was run: as §1

| Cell Line | relative viability (Kobe2602 + Lapatinib; first compound 0.2 µM) | relative viability (Kobe2602 + Lapatinib; first compound 0.6325 µM) | relative viability (Kobe2602 + Lapatinib; first compound 2 µM) | relative viability (Kobe2602 + Lapatinib; first compound 6.325 µM) | relative viability (Kobe2602 + Lapatinib; first compound 20 µM) | relative viability ([1]; first compound 0.06325 µM) | relative viability ([1]; first compound 0.2 µM) | relative viability ([1]; first compound 0.6325 µM) | relative viability ([1]; first compound 2 µM) | relative viability (Kobe2602 + Navitoclax; first compound 0.2 µM) | relative viability (Kobe2602 + Navitoclax; first compound 0.6325 µM) | relative viability (Kobe2602 + Navitoclax; first compound 2 µM) | relative viability (Kobe2602 + Navitoclax; first compound 6.325 µM) | relative viability (Kobe2602 + Navitoclax; first compound 20 µM) | relative viability ([2]; first compound 0.06325 µM) | relative viability ([2]; first compound 0.2 µM) | relative viability ([2]; first compound 0.6325 µM) | relative viability ([2]; first compound 2 µM) | relative viability ([1]; first compound 0.02 µM) | relative viability ([2]; first compound 0.02 µM) |
| --- | --- | --- | --- | --- | --- | --- | --- | --- | --- | --- | --- | --- | --- | --- | --- | --- | --- | --- | --- | --- |
| NCI-H23 | 0.999 | 1.36 | 1.08 | 1.05 | 1.07 | 0.687 | 0.561 | 0.473 | 0.48 | 0.744 | 0.741 | 0.97 | 0.679 | 0.993 | 1.31 | 0.996 | 0.959 | 0.945 | – | – |
| NCI-H520 | 0.853 | 0.908 | 0.645 | 0.729 | 0.824 | 1.05 | 0.938 | 0.796 | 0.815 | 0.99 | 1.08 | 1.03 | 1.07 | 0.988 | 0.73 | 0.703 | 0.483 | 0.515 | 0.923 | 0.878 |
| NCI-H2085 | 0.749 | 0.751 | 0.779 | 0.776 | 0.879 | 0.868 | 0.918 | 0.847 | 0.875 | 1.2 | 1.16 | 1.08 | 1.23 | 1.14 | 1.14 | 1.08 | 1.01 | 1.03 | 0.93 | 1.22 |
| IA-LM | 0.584 | 0.614 | 0.732 | 0.805 | 0.811 | 0.689 | 0.683 | 0.559 | 0.696 | – | 0.741 | 0.737 | 0.639 | 0.669 | 0.782 | 0.78 | 0.998 | 0.958 | 0.704 | 0.912 |
